Source: ChEMBL document CHEMBL2311471, “Synthesis of (E)-8-(3-chlorostyryl)caffeine analogues leading to 9-deazaxanthine derivatives as dual A(2A) antagonists/MAO-B inhibitors” (J Med Chem, 2013)
Calls of active or inactive are those of the source. The rule behind the calls is not given here.

Key:
Mus musculus [1] = test: General behavioral response in CD1 mouse assessed as induction of limbic stereotype at 30 to 100 mg/kg, po after 90 mins by Irwin test; type: organism-based, Limbic system; design: dose 30-100 mg/kg, route oral; conditions: in vivo, 1.5 h
Mus musculus [2] = test: General behavioral response in CD1 mouse assessed as induction of striatal stereotype at 30 to 100 mg/kg, po after 90 mins by Irwin test; type: organism-based; design: dose 30-100 mg/kg, route oral; conditions: in vivo, 1.5 h
Mus musculus [3] = test: General behavioral response in CD1 mouse assessed as induction of striatal stereotype at 10 mg/kg, po after 90 mins by Irwin test; type: organism-based; design: dose 10 mg/kg, route oral; conditions: in vivo, 1.5 h
[4] = molecular target: Sodium-dependent noradrenaline transporter (Homo sapiens) (UniProt P23975); test: Displacement of [3H]nisoxetine from human recombinant norepinephrine transporter expressed in CHO cells at 10 uM after 120 mins by scintillation counting analysis; type: cell-based
Chain of Sodium-dependent noradrenaline transporter (Homo sapiens) (P23975 whole entry): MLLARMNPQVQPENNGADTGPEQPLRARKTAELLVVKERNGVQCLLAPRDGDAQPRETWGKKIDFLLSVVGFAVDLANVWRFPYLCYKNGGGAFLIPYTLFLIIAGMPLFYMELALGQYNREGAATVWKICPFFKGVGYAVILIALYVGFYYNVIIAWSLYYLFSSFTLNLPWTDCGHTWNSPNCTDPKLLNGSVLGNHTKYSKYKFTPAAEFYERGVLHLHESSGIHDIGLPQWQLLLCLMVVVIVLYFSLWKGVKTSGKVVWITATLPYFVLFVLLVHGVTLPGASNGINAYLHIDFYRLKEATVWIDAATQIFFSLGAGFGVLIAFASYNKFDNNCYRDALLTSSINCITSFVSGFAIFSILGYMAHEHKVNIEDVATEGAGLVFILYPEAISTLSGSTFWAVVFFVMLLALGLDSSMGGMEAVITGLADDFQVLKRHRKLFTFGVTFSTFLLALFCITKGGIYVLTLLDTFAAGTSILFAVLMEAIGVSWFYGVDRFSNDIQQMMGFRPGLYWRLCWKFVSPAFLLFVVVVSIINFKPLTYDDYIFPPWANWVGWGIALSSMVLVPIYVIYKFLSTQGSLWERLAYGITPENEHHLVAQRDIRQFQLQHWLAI

[5] = molecular target: 5-hydroxytryptamine receptor 2B (Homo sapiens) (UniProt P41595); test: Displacement of [125I](+/-)DOI from human recombinant 5HT2B receptor expressed in CHO cells at 10 uM after 60 mins by scintillation counting analysis; type: cell-based
Chain of 5-hydroxytryptamine receptor 2B (Homo sapiens) (P41595 whole entry): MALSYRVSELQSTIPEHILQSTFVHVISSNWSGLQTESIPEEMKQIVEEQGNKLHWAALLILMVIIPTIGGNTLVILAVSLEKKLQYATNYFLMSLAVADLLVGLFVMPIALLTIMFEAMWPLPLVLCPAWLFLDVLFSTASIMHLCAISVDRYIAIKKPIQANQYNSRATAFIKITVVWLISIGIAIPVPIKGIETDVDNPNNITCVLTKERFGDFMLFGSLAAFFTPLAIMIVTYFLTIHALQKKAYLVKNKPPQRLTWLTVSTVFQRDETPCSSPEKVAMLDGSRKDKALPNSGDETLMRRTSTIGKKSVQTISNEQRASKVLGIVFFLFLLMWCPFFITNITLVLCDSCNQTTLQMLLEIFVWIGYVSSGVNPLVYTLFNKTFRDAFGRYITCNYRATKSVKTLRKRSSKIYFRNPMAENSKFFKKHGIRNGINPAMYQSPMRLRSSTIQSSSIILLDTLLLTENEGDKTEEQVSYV

[6] = molecular target: T1, Substance-K receptor (Homo sapiens) (UniProt P21452); test: Displacement of [125I]NKA human recombinant NK2 receptor expressed in CHO cells at 10 uM after 60 mins by scintillation counting analysis; type: cell-based
T1 sequence (whole entry): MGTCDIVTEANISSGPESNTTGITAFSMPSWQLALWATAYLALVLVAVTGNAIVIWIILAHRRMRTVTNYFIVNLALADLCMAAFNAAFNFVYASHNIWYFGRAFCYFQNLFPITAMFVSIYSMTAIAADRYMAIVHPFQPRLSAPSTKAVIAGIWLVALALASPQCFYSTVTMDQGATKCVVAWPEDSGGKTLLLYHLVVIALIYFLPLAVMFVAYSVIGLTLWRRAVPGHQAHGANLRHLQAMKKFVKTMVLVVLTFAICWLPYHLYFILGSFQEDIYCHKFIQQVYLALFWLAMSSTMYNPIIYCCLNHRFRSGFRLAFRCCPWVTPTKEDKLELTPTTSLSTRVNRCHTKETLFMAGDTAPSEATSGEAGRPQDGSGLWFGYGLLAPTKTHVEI

Adenosine receptor A2a [7] = molecular target: T2, Adenosine receptor A2a (Homo sapiens, UniProt P29274); test: Displacement of [3H]CGS 21680 from human recombinant adenosine A2A receptor expressed in HEK293 cells at 10 uM after 120 mins by scintillation counting analysis; type: cell-based
T2 sequence (P29274 whole entry): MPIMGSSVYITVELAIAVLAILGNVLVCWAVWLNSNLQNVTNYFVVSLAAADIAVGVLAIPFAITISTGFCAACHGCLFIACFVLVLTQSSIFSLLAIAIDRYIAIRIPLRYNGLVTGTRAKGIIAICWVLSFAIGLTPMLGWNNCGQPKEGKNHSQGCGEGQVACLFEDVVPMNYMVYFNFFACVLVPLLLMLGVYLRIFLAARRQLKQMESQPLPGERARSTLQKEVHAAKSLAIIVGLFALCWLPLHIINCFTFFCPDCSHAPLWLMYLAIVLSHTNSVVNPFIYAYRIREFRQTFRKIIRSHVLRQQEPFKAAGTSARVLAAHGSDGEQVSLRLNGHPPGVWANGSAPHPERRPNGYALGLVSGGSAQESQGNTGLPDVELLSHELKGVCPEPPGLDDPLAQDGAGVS

[8] = molecular target: T3, Adenosine receptor A3 (Homo sapiens) (UniProt P0DMS8); test: Displacement of [125I]AB-MECA from human recombinant adenosine A3 receptor expressed in HEK293 cells at 10 uM after 120 mins by scintillation counting analysis; type: cell-based
T3 sequence (whole entry): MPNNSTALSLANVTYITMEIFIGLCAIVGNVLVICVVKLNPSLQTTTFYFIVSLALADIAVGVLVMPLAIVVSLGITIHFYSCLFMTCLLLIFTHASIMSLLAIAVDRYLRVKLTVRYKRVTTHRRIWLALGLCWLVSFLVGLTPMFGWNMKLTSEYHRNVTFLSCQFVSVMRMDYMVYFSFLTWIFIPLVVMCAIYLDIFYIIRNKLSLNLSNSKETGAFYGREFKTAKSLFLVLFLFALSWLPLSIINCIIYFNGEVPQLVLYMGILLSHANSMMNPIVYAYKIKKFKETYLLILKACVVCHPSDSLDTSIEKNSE

[9] = molecular target: T4, Adenosine receptor A1 (Homo sapiens) (UniProt P30542); test: Displacement of [3H]DPCPX from human recombinant adenosine A1 receptor expressed in CHO cells at 10 uM after 60 mins by scintillation counting analysis; type: cell-based
T4 sequence (whole entry): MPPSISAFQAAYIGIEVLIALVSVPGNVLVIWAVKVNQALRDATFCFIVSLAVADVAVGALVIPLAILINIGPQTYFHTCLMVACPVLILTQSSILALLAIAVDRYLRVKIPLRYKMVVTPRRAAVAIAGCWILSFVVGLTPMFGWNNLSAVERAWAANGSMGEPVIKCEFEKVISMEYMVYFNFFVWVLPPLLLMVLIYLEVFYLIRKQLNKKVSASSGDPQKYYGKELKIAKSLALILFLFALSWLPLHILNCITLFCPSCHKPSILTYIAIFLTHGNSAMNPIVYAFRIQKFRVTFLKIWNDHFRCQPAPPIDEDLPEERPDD

Mus musculus [10] = test: General behavioral response in CD1 mouse assessed as increase in licking behavior at 100 mg/kg, po after 240 mins by Irwin test; type: ADME, organism-based; design: dose 100 mg/kg, route oral; conditions: in vivo, 4 h
[11] = molecular target: T5, Amine oxidase [flavin-containing] A (Homo sapiens, UniProt P21397); test: Inhibition of human MAOA after 1 hr by luminescence assay
T5 sequence (P21397 whole entry): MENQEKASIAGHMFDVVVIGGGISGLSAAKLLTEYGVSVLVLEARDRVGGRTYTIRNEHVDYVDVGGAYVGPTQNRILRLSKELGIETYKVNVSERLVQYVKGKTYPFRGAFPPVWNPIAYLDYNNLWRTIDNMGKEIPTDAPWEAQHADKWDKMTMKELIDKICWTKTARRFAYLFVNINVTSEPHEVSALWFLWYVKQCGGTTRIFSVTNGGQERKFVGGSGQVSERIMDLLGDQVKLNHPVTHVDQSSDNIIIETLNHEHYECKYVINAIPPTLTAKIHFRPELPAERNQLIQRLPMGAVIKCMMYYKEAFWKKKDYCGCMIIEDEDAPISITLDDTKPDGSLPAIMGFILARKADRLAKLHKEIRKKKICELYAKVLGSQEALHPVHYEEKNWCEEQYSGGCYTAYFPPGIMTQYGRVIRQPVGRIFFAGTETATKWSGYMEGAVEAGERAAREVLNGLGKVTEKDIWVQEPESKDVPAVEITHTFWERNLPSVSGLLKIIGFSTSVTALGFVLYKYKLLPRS

[12] = molecular target: T6, Amine oxidase [flavin-containing] B (Homo sapiens, UniProt P27338); test: Inhibition of human MAOB after 1 hr by luminescence assay
T6 sequence (P27338 whole entry): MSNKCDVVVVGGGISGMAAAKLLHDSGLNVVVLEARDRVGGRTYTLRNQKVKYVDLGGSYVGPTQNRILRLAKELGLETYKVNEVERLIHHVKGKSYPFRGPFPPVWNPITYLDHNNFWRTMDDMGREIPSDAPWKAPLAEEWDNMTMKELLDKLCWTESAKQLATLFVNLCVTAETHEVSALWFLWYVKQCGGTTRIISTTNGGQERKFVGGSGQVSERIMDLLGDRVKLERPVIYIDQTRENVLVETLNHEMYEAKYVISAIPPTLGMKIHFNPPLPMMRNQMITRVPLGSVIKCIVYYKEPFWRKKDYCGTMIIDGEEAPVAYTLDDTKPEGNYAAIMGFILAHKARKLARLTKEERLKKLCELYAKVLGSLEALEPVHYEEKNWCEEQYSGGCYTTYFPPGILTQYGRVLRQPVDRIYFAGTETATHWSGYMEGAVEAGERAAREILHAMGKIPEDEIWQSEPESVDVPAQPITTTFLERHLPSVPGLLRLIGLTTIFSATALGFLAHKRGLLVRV

Adenosine receptor A2a [13] = molecular target: T2, Adenosine receptor A2a; test: Displacement of [3H]ZM241385 from human adenosine A2A receptor expressed in HEK293 cells after 1 hr by microbeta scintillation counting analysis; type: cell-based
Mus musculus [14] = test: Reversal of haloperidol-induced catalepsy in po dosed CD1 mouse treated 2.5 hrs after haloperidol injection measured every 60 mins for 3 hrs; type: functional, organism-based
Mus musculus [15] = test: Reversal of haloperidol-induced catalepsy in CD1 mouse at 10 mg/kg, po treated 2.5 hrs after haloperidol injection measured every 60 mins for 3 hrs; type: functional, organism-based; design: dose 10 mg/kg
Mus musculus [16] = test: Reversal of haloperidol-induced catalepsy in CD1 mouse at 30 to 100 mg/kg, po treated 2.5 hrs after haloperidol injection measured every 60 mins for 3 hrs; type: functional, organism-based
Mus musculus [17] = test: General behavioral response in CD1 mouse assessed as induction of limbic stereotype at 10 mg/kg, po after 90 mins by Irwin test; type: organism-based, Limbic system; design: dose 10 mg/kg, route oral; conditions: in vivo, 1.5 h
Adenosine receptor A2a [18] = molecular target: Adenosine receptor A2a (Rattus norvegicus, UniProt P30543); test: Binding affinity to A2A receptor in rat brain striatal membrane by radioligand displacement assay; type: cell membranes
Chain of Adenosine receptor A2a (Rattus norvegicus, UniProt P30543) (P30543 whole entry): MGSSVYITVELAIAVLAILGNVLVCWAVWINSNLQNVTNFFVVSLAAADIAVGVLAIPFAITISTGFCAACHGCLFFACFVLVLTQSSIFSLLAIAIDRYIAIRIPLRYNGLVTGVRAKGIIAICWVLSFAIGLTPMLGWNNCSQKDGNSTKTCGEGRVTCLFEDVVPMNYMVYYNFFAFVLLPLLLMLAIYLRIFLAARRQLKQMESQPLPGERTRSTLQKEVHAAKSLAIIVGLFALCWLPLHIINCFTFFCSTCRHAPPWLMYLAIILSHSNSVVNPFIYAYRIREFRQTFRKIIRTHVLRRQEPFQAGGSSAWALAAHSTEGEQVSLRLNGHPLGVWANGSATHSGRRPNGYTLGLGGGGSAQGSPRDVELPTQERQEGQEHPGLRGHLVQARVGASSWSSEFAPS

Structure (SMILES) | Activity (Mus musculus [1]) | Activity (Mus musculus [2]) | Activity (Mus musculus [3]) | inhibition [4] [%] | inhibition [5] [%] | inhibition [6] [%] | inhibition (Adenosine receptor A2a [7]) [%] | inhibition [8] [%] | inhibition [9] [%] | Activity (Mus musculus [10]) | IC50 [11] [nM] | IC50 [12] [nM] | Ki (Adenosine receptor A2a [13]) [nM] | Activity (Mus musculus [14]) | Activity (Mus musculus [15]) | Activity (Mus musculus [16]) | Activity (Mus musculus [17]) | Ki (Adenosine receptor A2a [18]) [nM]
Cn1c(=O)c2c(cc(/C=C/c3ccc(Cl)cc3)n2C)n(C)c1=O | Toxic | Toxic | Non-toxic | 57 | 72 | 75 | 91 | 60 | 59 | Toxic | 10000 | 200 | 260 | Dose-dependent effect | inactive | Active | Non-toxic | –
C#CCn1c(=O)c2c(nc(C#Cc3ccccc3)n2C)n(C)c1=O | – | – | – | – | – | – | – | – | – | – | – | – | – | – | – | – | – | 300
